Test results reported in patent publication US5952296A, “Method of using relaxin as therapeutic or preventing agent” (priority 1993, dated 1999).
“Also recorded” adds a separate entry of the source. No end group written: not given here.

Legend:
[1] = tested on: mesenteric artery of spontaneously hypertensive rats; conditions: two days infusion; cited from earlier work
[2] = tested on: isolated serosal rat and guinea pig MCs and rat mesenteric MCs; assay: Mast cell histamine release, degranulation and intracellular Ca2+; type: cell-based; conditions: for calcium-ionophore-induced and anaphylactic histamine release: mast cells stimulated by ionophore or sensitized by allergen
Excerpt: 1-c Mast cells (MCs) are known to produce and release vasoactive substances. It has therefore been investigated whether RLX also exerts its vasodilatory action by influencing MC function. […] This effect is mediated by a stimulation of NO production. In fact, the RLX-induced depression of histamine release evoked by calcium ionophore was prevented by MeArg and potentiated by SOD. Moreover, RLX blunted the rise in the intracellular Ca^2+ levels evoked by calcium ionophore in a concentration-related fashion (41% decrease with 10 ng/mL RLX and 97% decrease with 100 ng/mL RLX). From these findings, it emerges that the vasodilatory action of RLX is not due to histamine release by MCs but, rather, to production of the vasodilatory agent NO, in keeping with its effect in the coronary system. The above results are summarized in the diagrams A and B in FIG. 4.
The degree of inhibition was the function of the dose of relaxin being used.

[3] = tested on: guinea pig hearts, isolated and perfused in vitro; assay: Coronary flow in isolated guinea pig hearts perfused in a Langendorff apparatus
Description: (§1) 1-a The coronary system was deemed a suitable model for studying the influence of RLX on dilation of blood vessels. Rat and guinea pig hearts, isolated and perfused in vitro in a Langendorff apparatus, were used to evaluate whether RLX causes changes in the coronary flow. After 30 minutes stabilization, in some experiments RLX (30 ng/ml) was added to the perfusion fluid and perfusion lasted for 20 minutes. In other experiments,RLX (30 ng/ml) was injected as a bolus into the aortic cannula. The perfusates were collected and the coronary flow determined. […] The percentage of basal flow variation is depicted versus time. In these diagrams (as well as in the next ones) values are expressed as mean ± SE (standard error). Statistic analyses were done calculating the Student's test (P), whose value is shown in the diagrams.
To clarify the mechanisms of action of RLX on dilation of coronary vessels, nitric oxide (NO) production and histamine release were assayed in the perfused guinea pig hearts. NO, which is known to be a powerful vasodilatory agent, was measured by determination of nitrites (stable end-products of NO metabolism) in the perfusates. […]

BASM cells = assay: Bovine aorta smooth muscle (BASM) cells cultured in vitro: actin cytoskeleton and intracellular cGMP; type: cell-based; conditions: for increase in intracellular cGMP levels: BASM cells
Excerpt: 1-b Smooth muscle cells of the vascular wall obtained from bovine aorta (BASM) and cultured in vitro are a suitable in vitro model for understanding the mode of action of RLX on blood vessels.
[…] RLX caused a striking concentration-related increase in intracellular cGMP levels (400% and 900% over the values of the untreated cultures).

[4] = tested on: isolated platelets from human volunteers and rabbits; assay: Aggregation of isolated platelets incubated with RLX and stimulated with proaggregants; type: cell-based, human and rabbit
Description: A first series of experiments was carried out on isolated platelets from human volunteers and rabbits, incubated with RLX and then stimulated with proaggregants.
This effect was concentration-relatedand attained a maximum of 80% inhibition with 100 ng/mL RLX.

male rats = assay: Plasma hemostasis factors, circulating platelets and megacaryocytes in male rats injected intraperitoneally with RLX; type: in vivo, rat
Description: A second series of experiments was performed in male rats injected intraperitoneally with RLX and sacrificed 20 minutes later. Before sacrifice, blood and plasma samples were collected for studying plasma hemostasis factors and number of circulating platelets; upon sacrifice, spleen specimens were taken for studying the morphology of megacaryocytes.

deep artery of the penis = assay: Blood flow in the deep artery of the penis by echo-doppler after injection into the cavernous bodies; type: in vivo, human
Description: 1-d The blood flow in the penis is influenced by local NO production. Based on the ability of RLX to stimulate NO synthesis, the effect of the peptide on the blood flow in the deep artery of the penis was investigated. RLX (sterilized by microfiltration) was injected into the cavernous bodies of 4 human normal volunteers at a dose of 10 ng, and the blood flow measured by an echo-doppler Acuson 128, 1-6 minutes after the injection. […] In FIG. 5 the echo-doppler images are reported, showing the flow under normal conditions (diagram A), 1 min. after RLX injection (diagram B) and 5 min. after RLX injection (diagram C).

[5] = tested on: perfused guinea pig hearts; assay: Nitric oxide (nitrite) production and histamine release in perfused guinea pig hearts
Description: To clarify the mechanisms of action of RLX on dilation of coronary vessels, nitric oxide (NO) production and histamine release were assayed in the perfused guinea pig hearts. NO, which is known to be a powerful vasodilatory agent, was measured by determination of nitrites (stable end-products of NO metabolism) in the perfusates. In some experiments, N^W -monomethyl L-arginine (MeArg), a NO-synthase inhibitor, was added to the perfusion fluid before giving RLX as a bolus; in other experiments,guinea pigs were pretreated with E.coli lipopolysaccharide (LPS), an inducer of NO-synthase activity before heart isolation and perfusion. […] This was further confirmed by the experiments with MeArg and LPS, drugs that blunted and enhanced the RLX-induced increase in the coronary flow, respectively (FIG. 2).

[6] = Blood osmolality and sodium concentration in rats after RLX; type: in vivo, rat; conditions: rats after RLX (from 142±4 before)
[7] = tested on: rat hearts, isolated and perfused in vitro; assay: Coronary flow in isolated rat hearts perfused in a Langendorff apparatus; conditions: RLX 30 ng/ml in perfusion fluid for 20 minutes or as bolus into the aortic cannula; rat heart (FIG. 1A)
Description: as §1

[8] = Cholesterol and triglycerides in peripheral blood serum; type: in vivo; conditions: peripheral blood serum after RLX administration
atrial myocardiocytes = assay: ANP secretion from atrial myocardiocytes of rats after intraperitoneal RLX; type: in vivo, rat
Description: 3-a ANP secretion was studied in rats following intraperitoneal administration of 10 μg RLX. It is known that atrial myocardiocytes have an endocrine function, being able to synthesize and release a peptide, called atrial natriuretic peptide (ANP) that, besides its firstly recognized effect in stimulating natriuresis, has other properties such as a negative action on blood pressure due to a decrease in the vascular tone and a shift of the plasma fluid in the interstitial compartment. A possible relationship has therefore been searched for between RLX and ANP by evaluating the amount of immunoreactive ANP and the ultrastructural features of atrial myocardiocytes of rats upon RLX treatment. […] No appreciable changes were found in the extension of the ergastoplasm and Golgi apparatus. […] Determinations of ANP content in rat atria homogenates by RIA before and after in vivo administration of RLX are in agreement with the EM findings.

heart atria = conditions: Osheroff et al.; cited from earlier work

## rat RLX: rat relaxin infused for two days in a cited 1989 study (Relaxin B chain RVSEEWMDQVIQVCGRGYARAWIEVCGASVGRLAL; Relaxin A chain QSGALLSEQCCHIGCTRRSIAKLC; ends and bridges not checked; cysteine pairing not given here; UniProt P01347 23-57; P01347 163-186, looked up)
[1]
  vasoconstrictive effects of norepinephrine and vasopressin: blunted

## CNC(=N)NCCC[C@H](N)C(=O)O [MeArg, N^W -monomethyl L-arginine, reference compound]
[2]; mast cells
  effect on the RLX-induced depression of histamine release evoked by calcium ionophore: prevented
[3]; MeArg added to perfusion fluid before RLX bolus, LPS pretreatment of guinea pigs before heart isolation
  effect on the RLX-induced increase in the coronary flow: blunted
BASM cells; pretreatment of BASM cells
  effect on the RLX-induced increase in cGMP: depression

## relaxin [RLX]
[4]; 100 ng/mL RLX
  maximum inhibition of platelet aggregation induced by proaggregants: 80%
[4]; FIG. 7
  thromboxane production in platelets: inhibition of thromboxane production
[4]; FIG. 8
  endogenous NO synthesis in platelets: stimulation of endogenous NO synthesis
[4]; FIG. 9
  intracellular cGMP in platelets: rise in intracellular cGMP
[4]; FIG. 10
  cytosolic Ca2+ in platelets: decrease of cytosolic Ca^2+
[4]; ultrastructural examination
  platelet ultrastructure during aggregation: hinders the conformational modifications and granule exocytosis
Male rats; rat plasma, RLX-Treated
  F 1 + 2: 0.028 ± 0.01 nM/mL
  PT: 15.1 ± 0.5 s
  aPTT: 19 ± 2.5 s
  tPA Ag: 0.52 ± 0.1 ng/mL
Male rats; rat plasma, RLX-Treated, 20 minutes after intraperitoneal injection
  Fibrinogen: 185 ± 26 mg/dL
Male rats; rat plasma, RLX-Treated, P < 0.001
  tPA activity: 0.37 ± 0.03 U/mL
Male rats; rat plasma, RLX-Treated, P < 0.05
  PAI-1 activity: 11.7 ± 0.7 U/mL
Male rats; rats
  coagulation factors such as fibrinogen and prothrombin fragments F1+2: slight decrease
  plasma levels of tPA and PAI-1: significant, concentration-dependant increase
Male rats; rats, in vivo
  number of circulating platelets: reduction in the number of circulating platelets
[2]; 10 ng/mL RLX, mast cells
  decrease of the rise in intracellular Ca2+ levels evoked by calcium ionophore: 41%
[2]; 100 ng/mL RLX, mast cells
  decrease of the rise in intracellular Ca2+ levels evoked by calcium ionophore: 97%
[2]; mast cells
  MC degranulation: inhibits
[2]
  calcium-ionophore-induced and anaphylactic histamine release: inhibits
[2]; listed as relaxin
  calcium-ionophore-induced and anaphylactic histamine release: inhibit or, depending on the dose, totally suppress; also recorded: greatly inhibiting
[2]; unstimulated mastocytes
  basal liberation of histamine by mastocytes: no effect whatsoever
[3]; RLX 30 ng/ml in perfusion fluid for 20 minutes or as bolus into the aortic cannula, guinea pig heart (FIG. 1B)
  coronary flow: increases significantly
Deep artery of the penis; 10 ng into the cavernous bodies, 4 human normal volunteers, 1-6 minutes after injection, versus basal flow
  blood flow in the deep artery of the penis: striking increase
Deep artery of the penis; two subjects, 5-10 min. after RLX injection
  erection: erection was also observed
[5]
  amount of histamine in the perfusates: significantly reduced
[5]; versus basal value
  nitrite amounts in the perfusates (NO production): two-fold increase over the basal value
BASM cells; 10 ng/mL RLX for 1 hour
  increase in intracellular cGMP levels: 400 % over the values of the untreated cultures
BASM cells; 100 ng/mL RLX for 1 hour
  increase in intracellular cGMP levels: 900 % over the values of the untreated cultures
BASM cells; BASM cells incubated for 4 hours with 100 ng/mL RLX
  actin cytoskeleton (immunocytochemistry with anti-actin antibodies): induces changes in the actin cytoskeleton
[6]
  sodium concentration: 136±2 mEq/1
[7]
  coronary flow: increases significantly
[8]
  reduction of cholesterol concentration: up to 38%
  reduction of triglycerides concentration: ≤ 55%
Atrial myocardiocytes; rats, 10 μg RLX intraperitoneal, twenty minutes after administration
  amount of immunoreactive ANP and number of ANP-storing granules in atrial myocardiocytes: strongly decreased
Atrial myocardiocytes; summary statement
  secretion of ANP from the atriocytes: inhibit or, depending on the dose, totally suppress
Heart atria
  binding to heart atria: binding of RLX to heart atria
  rhythm and contractions of the in vitro isolated atria: increase of the rhythm and contractions
